This passage reports T/C results from PubChem BioAssay AID248 (DTP/NCI, 2004).

The assay has as its system L1210 leukemia ip in BDF1 mice, survival T/C. Description: NCI In Vivo Anticancer Drug Screen. Data for tumor model L1210 Leukemia (intraperitoneal) in B6D2F1 (BDF1) mice. Conditions: endpoint: mean survival time, higher = longer survival. The method, boiled down:
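In this screen, tumor-bearing mice given compound are compared to those given vehicle, and their survival values are reported as a treated-to-control quotient.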

Setting [1] is: dose: 100.0 mg/kg/injection, schedule: Q01DX009 (ip), vehicle: Klucel (hydroxypropylcellulose) (HPC).
[2] abbreviates: dose: 200.0 mg/kg/injection, schedule: Q01DX009 (ip), vehicle: Klucel (hydroxypropylcellulose) (HPC).
Setting [3] is: dose: 400.0 mg/kg/injection, schedule: Q01DX009 (ip), vehicle: Klucel (hydroxypropylcellulose) (HPC).
Setting [4] is: dose: 100.0 mg/kg/injection, schedule: Q01DX001 (ip), vehicle: saline.
[5] abbreviates: dose: 100.0 mg/kg/injection, schedule: Q04DX003 (ip), vehicle: saline.
Setting [6] is: dose: 200.0 mg/kg/injection, schedule: Q04DX003 (ip), vehicle: saline.
The mark [7] stands for this setting: dose: 400.0 mg/kg/injection, schedule: Q04DX003 (ip), vehicle: saline.
The mark [8] stands for this setting: dose: 100.0 mg/kg/injection, schedule: Q04DX003 (ip), vehicle: Klucel (hydroxypropylcellulose) (HPC).
The mark [9] stands for this setting: dose: 200.0 mg/kg/injection, schedule: Q04DX003 (ip), vehicle: Klucel (hydroxypropylcellulose) (HPC).
Where [10] appears, read: dose: 400.0 mg/kg/injection, schedule: Q04DX003 (ip), vehicle: Klucel (hydroxypropylcellulose) (HPC).

Where “and” joins values, the source holds several entries; their conditions need not be identical. Equal entries are not always repeated. Inconclusive results and toxic doses are left out.

For the compound `O=C(CN1CC1)NCc1ccc(CNC(=O)CN2CC2)cc1`, the T/C reads like this: (dose: 1.5 mg/kg/injection, schedule: Q01DX009 (ip), vehicle: carboxymethylcellulose (CMC)) 111 % of control; (dose: 6.0 mg/kg/injection, schedule: Q01DX009 (ip), vehicle: carboxymethylcellulose (CMC)) 106 % of control; (dose: 6.25 mg/kg/injection, schedule: Q01DX009 (ip), vehicle: carboxymethylcellulose (CMC)) 118 % of control; (dose: 7.3 mg/kg/injection, schedule: Q01DX001 (ip), vehicle: carboxymethylcellulose (CMC)) 115 % of control; (dose: 11.0 mg/kg/injection, schedule: Q01DX001 (ip), vehicle: carboxymethylcellulose (CMC)) 121 % of control; (dose: 11.1 mg/kg/injection, schedule: Q01DX009 (ip), vehicle: carboxymethylcellulose (CMC)) 158 % of control. Also, the T/C (dose: 12.5 mg/kg/injection, schedule: Q01DX009 (ip), vehicle: carboxymethylcellulose (CMC)) was 183 % of control; the T/C (dose: 16.6 mg/kg/injection, schedule: Q01DX009 (ip), vehicle: carboxymethylcellulose (CMC)) is 163 % of control; the T/C (dose: 25.0 mg/kg/injection, schedule: Q01DX009 (ip), vehicle: carboxymethylcellulose (CMC)) was 153 % of control and 183 % of control; the T/C (dose: 37.5 mg/kg/injection, schedule: Q01DX001 (ip), vehicle: carboxymethylcellulose (CMC)) was 155 % of control.

Turning to `O=C1c2ccccc2-c2ccccc2C12N=Nc1ccccc12` (centres undefined), the T/C reads like this: (dose: 25.0 mg/kg/injection, schedule: Q04DX002 (ip), vehicle: Klucel (hydroxypropylcellulose) (HPC)) 101 % of control; (dose: 50.0 mg/kg/injection, schedule: Q04DX002 (ip), vehicle: Klucel (hydroxypropylcellulose) (HPC)) 97 % of control; (dose: 100.0 mg/kg/injection, schedule: Q04DX002 (ip), vehicle: Klucel (hydroxypropylcellulose) (HPC)) 101 % of control.

In the case of `CN(C(=O)c1cccc([N+](=O)[O-])c1)C1CCCCC1`, the T/C runs as follows: under setting [1], 93 % of control; under setting [2], 100 % of control; under setting [3], 96 % of control.

Turning to `CC1(C)OCC2OC3(C(=O)O)OC(C)(C)OC3C2O1` (centres undefined), the T/C by setting is: (dose: 25.0 mg/kg/injection, schedule: Q01DX009 (ip), vehicle: water) 105 % of control; (dose: 50.0 mg/kg/injection, schedule: Q01DX009 (ip), vehicle: water) 101 % of control; (dose: 100.0 mg/kg/injection, schedule: Q01DX009 (ip), vehicle: water) 96 % of control; (dose: 200.0 mg/kg/injection, schedule: Q01DX009 (ip), vehicle: water) 101 % of control; (dose: 400.0 mg/kg/injection, schedule: Q01DX009 (ip), vehicle: water) 95 % of control.

Regarding `CN(C)c1ccc(N=Cc2ccccc2O)cc1.[Co]`, the T/C (dose: 100.0 mg/kg/injection, schedule: Q01DX001 (ip), vehicle: other) is 90 % of control; the T/C (dose: 200.0 mg/kg/injection, schedule: Q01DX001 (ip), vehicle: other) was 94 % of control; the T/C (dose: 400.0 mg/kg/injection, schedule: Q01DX001 (ip), vehicle: other) is 91 % of control.

Take `c1ccc([P+](CC2CCCO2)(c2ccccc2)c2ccccc2)cc1` (centres undefined): under setting [4], the T/C is 113 % of control.

On to `CCOc1ccc(CO)cc1`, for which the T/C (dose: 100.0 mg/kg/injection, schedule: Q04DX003 (ip), vehicle: saline with Tween-80) was 97 % of control; the T/C (dose: 200.0 mg/kg/injection, schedule: Q04DX003 (ip), vehicle: saline with Tween-80) was 100 % of control; the T/C (dose: 400.0 mg/kg/injection, schedule: Q04DX003 (ip), vehicle: saline with Tween-80) was 89 % of control.

Regarding `CCOc1c(Cl)c(Cl)c(Cl)c(Cl)c1Cl`, the T/C is, setting by setting: under setting [1], 91 % of control; under setting [2], 97 % of control; under setting [3], 91 % of control.

For `FC(F)(F)c1nccc(=S)[nH]1`, the T/C is, setting by setting: (dose: 50.0 mg/kg/injection, schedule: Q01DX Z (ip), vehicle: methylcellulose (MC)) 98 % of control; (dose: 100.0 mg/kg/injection, schedule: Q01DX Z (ip), vehicle: methylcellulose (MC)) 90 % of control.

For the compound `CN1CN(c2ccccc2)C2(CCN(CCCC3Cc4ccccc4O3)CC2)C1=O` (centres undefined), the T/C is, setting by setting: (dose: 12.0 mg/kg/injection, schedule: Q01DX001 (ip), vehicle: Klucel (hydroxypropylcellulose) (HPC)) 95 % of control; (dose: 25.0 mg/kg/injection, schedule: Q01DX001 (ip), vehicle: Klucel (hydroxypropylcellulose) (HPC)) 98 % of control; (dose: 50.0 mg/kg/injection, schedule: Q01DX001 (ip), vehicle: Klucel (hydroxypropylcellulose) (HPC)) 96 % of control.

In the case of `CC(=O)ONc1nc(C)c(CCC2OCCO2)c(SC(=N)N)n1`, the T/C (dose: 100.0 mg/kg/injection, schedule: Q01DX009 (ip), vehicle: saline) is 109 % of control; the T/C under setting [5] is 110 % of control; the T/C (dose: 200.0 mg/kg/injection, schedule: Q01DX009 (ip), vehicle: saline) was 113 % of control; the T/C under setting [6] is 105 % of control; the T/C (dose: 400.0 mg/kg/injection, schedule: Q01DX009 (ip), vehicle: saline) is 93 % of control; the T/C under setting [7] was 100 % of control.

For `CCCCCCCCCCCCCCCCCCSC(C)(C)SCCCCCCCCCCCCCCCCCC`, the T/C (dose: 100.0 mg/kg/injection, schedule: Q04DX002 (ip), vehicle: saline with Tween-80) is 106 % of control; the T/C (dose: 200.0 mg/kg/injection, schedule: Q04DX002 (ip), vehicle: saline with Tween-80) is 89 % of control; the T/C (dose: 400.0 mg/kg/injection, schedule: Q04DX002 (ip), vehicle: saline with Tween-80) is 92 % of control.

For `O=C(O)c1ccc(NC(=S)Nc2ccc(C(=O)O)cc2)cc1`, the T/C by setting is: (dose: 100.0 mg/kg/injection, schedule: Q01DX009 (ip), vehicle: saline with Tween-80) 93 % of control; under setting [5], 94 % of control; (dose: 200.0 mg/kg/injection, schedule: Q01DX009 (ip), vehicle: saline with Tween-80) 112 % of control; under setting [6], 100 % of control; (dose: 400.0 mg/kg/injection, schedule: Q01DX009 (ip), vehicle: saline with Tween-80) 93 % of control; under setting [7], 104 % of control.

With `Nc1ccc2c(c1)-c1ccccc1C1=NCCN12`, the T/C by setting is: (dose: 2.5 mg/kg/injection, schedule: Q04DX003 (ip), vehicle: Klucel (hydroxypropylcellulose) (HPC)) 102 % of control; (dose: 5.0 mg/kg/injection, schedule: Q01DX009 (ip), vehicle: Klucel (hydroxypropylcellulose) (HPC)) 98 % of control; (dose: 5.0 mg/kg/injection, schedule: Q04DX003 (ip), vehicle: Klucel (hydroxypropylcellulose) (HPC)) 102 % of control; (dose: 10.0 mg/kg/injection, schedule: Q01DX009 (ip), vehicle: Klucel (hydroxypropylcellulose) (HPC)) 98 % of control; (dose: 10.0 mg/kg/injection, schedule: Q04DX003 (ip), vehicle: Klucel (hydroxypropylcellulose) (HPC)) 93 % of control; (dose: 20.0 mg/kg/injection, schedule: Q01DX009 (ip), vehicle: Klucel (hydroxypropylcellulose) (HPC)) 96 % of control. Besides, the T/C (dose: 20.0 mg/kg/injection, schedule: Q04DX003 (ip), vehicle: Klucel (hydroxypropylcellulose) (HPC)) is 90 % of control.

For the compound `CC1(C)C2CCC1C(CO)C2` (centres undefined), the T/C reads like this: under setting [1], 94 % of control; under setting [8], 96 % of control; under setting [2], 104 % of control; under setting [9], 107 % of control; under setting [3], 100 % of control; under setting [10], 102 % of control.

Regarding `CC(=O)OCC1OC(N2CCc3ccccc32)C(OC(C)=O)C(OC(C)=O)C1OC(C)=O` (centres undefined), the T/C under setting [4] is 103 % of control; the T/C (dose: 200.0 mg/kg/injection, schedule: Q01DX001 (ip), vehicle: saline) is 102 % of control; the T/C (dose: 400.0 mg/kg/injection, schedule: Q01DX001 (ip), vehicle: saline) was 96 % of control.

For the compound `O=C1C=C(Cl)C(=O)c2ccccc21`, the T/C (dose: 9.38 mg/kg/injection, schedule: Q01DX001 (ip), vehicle: steriod suspending solution) was 91 % of control.

As to `COc1cc(C(=O)O)ccc1OCCNS(C)(=O)=O`, the T/C was 96 % of control (dose: 100.0 mg/kg/injection, schedule: Q01DX001 (ip), vehicle: Klucel (hydroxypropylcellulose) (HPC)); 105 % of control under setting [8]; 102 % of control (dose: 200.0 mg/kg/injection, schedule: Q01DX001 (ip), vehicle: Klucel (hydroxypropylcellulose) (HPC)); 96 % of control under setting [9]; 100 % of control (dose: 400.0 mg/kg/injection, schedule: Q01DX001 (ip), vehicle: Klucel (hydroxypropylcellulose) (HPC)); 94 % of control under setting [10].
